Experiment: Inhibitory activity against rice Alpha-galactosidase

IC50: 805 µM
SMILES: OCC1=NO[C@H]2[C@H](O)C(O)O[C@@H]12 (stereo partly drawn) [(3aS,6S,6aS)-3-Hydroxymethyl-3a,5,6,6a-tetrahydro-furo[2,3-d]isoxazole-5,6-diol]

Source: BindingDB's records for doi:10.1016/s0960-894x(98)00722-7 (Institut De Chimie Organique De L'Universit&#233, 1999)
